Measurements reported in patent US9113629B2, “4-amino-6-(4-substituted-phenyl)-picolinates and 6-amino-2-(4-substituted-phenyl)-pyrimidine-4-carboxylates and their use as herbicides” (DOW AGROSCIENCES LLC, priority 2013, dated 2015).

Tested on: Key Grass and Sedge Weeds as well as Grass Crops
Test: Post-emergent Test II herbicidal activity (Table 6)
Type: in vivo
Conditions: post-emergence, 336 h, ZEAMX: maize, corn (Zea mays), application rate 140 g ai/ha, read-out: Visual Growth Reduction (%) 14 Days After Application, ZEAMX
Procedure, shortened: (§1)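 Greenhouse post-emergent assay: seedlings (first/second true leaf) in Metro-Mix 360 were sprayed at 187 L/ha at a top rate plus twofold dilutions down to 1/16×; solvent-blank controls were included. Percent visual injury was read at 14 d.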
In the case of Cc1c(-c2ccc(OC(F)F)cc2)nc(C(=O)O)c(Cl)c1N [Compound 94, 4-Amino-3-chloro-6-(4-(difluoromethoxy)phenyl)-5-methylpicolinic acid], the pest or weed control at 140 g/ha is reported as 0 to 29%.

Tested on: not given
Test: not given
Conditions: not given
Molecule Cc1c(-c2ccc(OC(F)F)cc2)nc(C(=O)O)c(Cl)c1N [Compound 94, 4-Amino-3-chloro-6-(4-(difluoromethoxy)phenyl)-5-methylpicolinic acid] has a melting point of 158.5 to 159.5 °C.

Tested on: Key Broadleaf Weed and Crop Species
Test: Post-emergent Test II herbicidal activity (Table 5)
Type: in vivo
Conditions: post-emergence, 336 h; ABUTH: velvetleaf (Abutilon theophrasti); 70 g ai/ha; post-emergent; 14 days after application; read-out: Visual Growth Reduction (%) 14 Days After Application ABUTH
Procedure, shortened: as §1
Work on Cc1c(-c2ccc(OC(F)F)cc2)nc(C(=O)O)c(Cl)c1N [Compound 94, 4-Amino-3-chloro-6-(4-(difluoromethoxy)phenyl)-5-methylpicolinic acid] yielded a pest or weed control at 70 g/ha of 0 to 29%.

Same assay, conditions: post-emergence, 336 h; ABUTH: velvetleaf (Abutilon theophrasti); 140 g ai/ha; post-emergent; 14 days after application; read-out: Visual Growth Reduction (%) 14 Days After Application ABUTH
In the case of Cc1c(-c2ccc(OC(F)F)cc2)nc(C(=O)O)c(Cl)c1N [Compound 94, 4-Amino-3-chloro-6-(4-(difluoromethoxy)phenyl)-5-methylpicolinic acid], the pest or weed control at 140 g/ha is reported as 0 to 29%.

Same assay, conditions: post-emergence, 336 h; AMARE: redroot pigweed (Amaranthus retroflexus); 70 g ai/ha; post-emergent; 14 days after application; read-out: Visual Growth Reduction (%) 14 Days After Application AMARE
Work on Cc1c(-c2ccc(OC(F)F)cc2)nc(C(=O)O)c(Cl)c1N [Compound 94, 4-Amino-3-chloro-6-(4-(difluoromethoxy)phenyl)-5-methylpicolinic acid] yielded a pest or weed control at 70 g/ha of 0 to 29%.

Same assay, conditions: post-emergence, 336 h; AMARE: redroot pigweed (Amaranthus retroflexus); 140 g ai/ha; post-emergent; 14 days after application; read-out: Visual Growth Reduction (%) 14 Days After Application AMARE
For Cc1c(-c2ccc(OC(F)F)cc2)nc(C(=O)O)c(Cl)c1N [Compound 94, 4-Amino-3-chloro-6-(4-(difluoromethoxy)phenyl)-5-methylpicolinic acid], the pest or weed control at 140 g/ha was 45 to 59%.

Same assay, conditions: post-emergence, 336 h; BRSNN: oilseed-rape, canola (Brassica napus); 70 g ai/ha; post-emergent; 14 days after application; read-out: Visual Growth Reduction (%) 14 Days After Application BRSNN
With Cc1c(-c2ccc(OC(F)F)cc2)nc(C(=O)O)c(Cl)c1N [Compound 94, 4-Amino-3-chloro-6-(4-(difluoromethoxy)phenyl)-5-methylpicolinic acid] the pest or weed control at 70 g/ha was 0 to 29%.

Same assay, conditions: post-emergence, 336 h; BRSNN: oilseed-rape, canola (Brassica napus); 140 g ai/ha; post-emergent; 14 days after application; read-out: Visual Growth Reduction (%) 14 Days After Application BRSNN
Work on Cc1c(-c2ccc(OC(F)F)cc2)nc(C(=O)O)c(Cl)c1N [Compound 94, 4-Amino-3-chloro-6-(4-(difluoromethoxy)phenyl)-5-methylpicolinic acid] yielded a pest or weed control at 140 g/ha of 0 to 29%.

Same assay, conditions: post-emergence, 336 h; CHEAL: lambsquarters (Chenopodium album); 70 g ai/ha; post-emergent; 14 days after application; read-out: Visual Growth Reduction (%) 14 Days After Application CHEAL
Cc1c(-c2ccc(OC(F)F)cc2)nc(C(=O)O)c(Cl)c1N [Compound 94, 4-Amino-3-chloro-6-(4-(difluoromethoxy)phenyl)-5-methylpicolinic acid] showed a pest or weed control at 70 g/ha of 85 to 94%.

Same assay, conditions: post-emergence, 336 h; CHEAL: lambsquarters (Chenopodium album); 140 g ai/ha; post-emergent; 14 days after application; read-out: Visual Growth Reduction (%) 14 Days After Application CHEAL
With Cc1c(-c2ccc(OC(F)F)cc2)nc(C(=O)O)c(Cl)c1N [Compound 94, 4-Amino-3-chloro-6-(4-(difluoromethoxy)phenyl)-5-methylpicolinic acid] the pest or weed control at 140 g/ha was 85 to 94%.

Same assay, conditions: post-emergence, 336 h; EPHHL: wild poinsettia (Euphorbia heterophylla); 70 g ai/ha; post-emergent; 14 days after application; read-out: Visual Growth Reduction (%) 14 Days After Application EPHHL
Work on Cc1c(-c2ccc(OC(F)F)cc2)nc(C(=O)O)c(Cl)c1N [Compound 94, 4-Amino-3-chloro-6-(4-(difluoromethoxy)phenyl)-5-methylpicolinic acid] yielded a pest or weed control at 70 g/ha of 0 to 29%.

Same assay, conditions: post-emergence, 336 h; EPHHL: wild poinsettia (Euphorbia heterophylla); 140 g ai/ha; post-emergent; 14 days after application; read-out: Visual Growth Reduction (%) 14 Days After Application EPHHL
For Cc1c(-c2ccc(OC(F)F)cc2)nc(C(=O)O)c(Cl)c1N [Compound 94, 4-Amino-3-chloro-6-(4-(difluoromethoxy)phenyl)-5-methylpicolinic acid], the pest or weed control at 140 g/ha was 0 to 29%.

Same assay, conditions: post-emergence, 336 h; HELAN: sunflower (Helianthus annuus); 70 g ai/ha; post-emergent; 14 days after application; read-out: Visual Growth Reduction (%) 14 Days After Application HELAN
In the case of Cc1c(-c2ccc(OC(F)F)cc2)nc(C(=O)O)c(Cl)c1N [Compound 94, 4-Amino-3-chloro-6-(4-(difluoromethoxy)phenyl)-5-methylpicolinic acid], the pest or weed control at 70 g/ha is reported as 85 to 94%.

Same assay, conditions: post-emergence, 336 h; HELAN: sunflower (Helianthus annuus); 140 g ai/ha; post-emergent; 14 days after application; read-out: Visual Growth Reduction (%) 14 Days After Application HELAN
With Cc1c(-c2ccc(OC(F)F)cc2)nc(C(=O)O)c(Cl)c1N [Compound 94, 4-Amino-3-chloro-6-(4-(difluoromethoxy)phenyl)-5-methylpicolinic acid] the pest or weed control at 140 g/ha was 85 to 94%.

Same assay, conditions: post-emergence, 336 h; VIOTR: wild pansy (Viola tricolor); 70 g ai/ha; post-emergent; 14 days after application; read-out: Visual Growth Reduction (%) 14 Days After Application VIOTR
Work on Cc1c(-c2ccc(OC(F)F)cc2)nc(C(=O)O)c(Cl)c1N [Compound 94, 4-Amino-3-chloro-6-(4-(difluoromethoxy)phenyl)-5-methylpicolinic acid] yielded a pest or weed control at 70 g/ha of 0 to 29%.

Same assay, conditions: post-emergence, 336 h; VIOTR: wild pansy (Viola tricolor); 140 g ai/ha; post-emergent; 14 days after application; read-out: Visual Growth Reduction (%) 14 Days After Application VIOTR
Work on Cc1c(-c2ccc(OC(F)F)cc2)nc(C(=O)O)c(Cl)c1N [Compound 94, 4-Amino-3-chloro-6-(4-(difluoromethoxy)phenyl)-5-methylpicolinic acid] yielded a pest or weed control at 140 g/ha of 0 to 29%.
